Columns and labels:
[1] = test system: antibodies in sera from SARS patients (sera 1a, 1b, 2, 6, 37, 62, London, SARS-yellow, SARS-green); assay type: binding, human; parameters: Binding of serum 6 to linear peptides of protein X1 of SARS-CoV Urbani / Binding of serum 37 to linear peptides of protein X1 of SARS-CoV Urbani / Binding of serum 6 to looped/cyclic peptide (PEPSCAN-ELISA) / Binding of serum 37 to looped/cyclic peptide (PEPSCAN-ELISA) / Binding of serum 37 to looped/cyclic peptides of protein X1 of SARS-CoV Urbani / Binding of serum 6 to linear peptides of protein X2 / Binding of serum 37 to linear peptides of protein X2 / Binding of serum 37 to looped/cyclic peptides of protein X2 of SARS-CoV Urbani / Binding of serum 6 to linear peptides of protein M of SARS-CoV Urbani / Binding of serum 37 to linear peptides of protein M of SARS-CoV Urbani / Binding of serum 6 to looped/cyclic peptides of protein M of SARS-CoV Urbani / Binding of serum 37 to looped/cyclic peptides of protein M of SARS-CoV Urbani / Binding of serum 6 to linear peptides of protein X3 of SARS-CoV Urbani / Binding of serum 37 to linear peptides of protein X3 of SARS-CoV Urbani / Binding of serum 37 to looped/cyclic peptides of protein X3 of SARS-CoV Urbani / Binding of serum 6 to linear peptides of protein X4 of SARS-CoV Urbani / Binding of serum 37 to linear peptides of protein X4 of SARS-CoV Urbani / Binding of serum 37 to looped/cyclic peptides of protein X4 of SARS-CoV Urbani / Binding of serum 6 to linear peptides of protein X5 of SARS-CoV Urbani / Binding of serum 37 to linear peptides of protein X5 of SARS-CoV Urbani / Binding of serum 37 to looped/cyclic peptides of protein X5 of SARS-CoV Urbani / Binding of serum 6 to linear peptides of protein N of SARS-CoV Urbani / Binding of serum 37 to linear peptides of protein N of SARS-CoV Urbani / Binding of serum 6 to linear peptide (PEPSCAN-ELISA) / Binding of serum 1a to looped/cyclic peptides of protein N of SARS-CoV Urbani / Binding of serum 1b to looped/cyclic peptides of protein N of SARS-CoV Urbani / Binding of serum 2 to looped/cyclic peptides of protein N of SARS-CoV Urbani / Binding of serum 6 to looped/cyclic peptides of protein N of SARS-CoV Urbani / Binding of serum 37 to looped/cyclic peptides of protein N of SARS-CoV Urbani / Binding of serum 62 to looped/cyclic peptides of protein N of SARS-CoV Urbani / Binding of serum London to looped/cyclic peptides of protein N of SARS-CoV Urbani / Binding of serum SARS-green to looped/cyclic peptides of protein N of SARS-CoV Urbani: unit not given here
[2] = test system: rabbit serum obtained by immunizing a rabbit with the SARS-CoV strain Frankfurt 1; assay type: binding; parameters: Binding of a rabbit serum to linear peptides / Binding of a rabbit serum to looped peptides / Rabbit serum linear peptides / Rabbit serum looped peptides / Binding of a rabbit serum to linear peptides of protein N of SARS-CoV Urbani (Rabbit serum linear peptides) / Binding of a rabbit serum to looped/cyclic peptides of protein N of SARS-CoV Urbani (Rabbit serum looped peptides): unit not given here
[3] = test system: control sera (pooled serum of ten healthy LUMC hospital workers; commercial negative donor pooled serum from the Dutch bloodbank); assay type: binding, human; parameters: Binding of Control serum LUMC to linear peptides / Binding of Control serum Blood-bank to linear peptides / Binding of Control serum LUMC to looped peptides / Binding of Control Serum Blood-Bank to Looped peptides / Binding of Control serum LUMC to linear peptides of the protein M of SARS-CoV Urbani / Binding of Control serum Blood-bank to linear peptides of the protein M of SARS-CoV Urbani / Binding of Control serum LUMC to looped peptides of the protein M of SARS-CoV Urbani / Binding of Control Serum Blood-Bank to Looped peptides of the protein M of SARS-CoV Urbani: unit not given here

AFACADGTRHTYQLR
0.6: Binding of serum 1a to linear peptides of protein X4 of SARS-CoV Urbani [1] | Binding of serum 1a to looped/cyclic peptides of protein X4 of SARS-CoV Urbani [1] | Binding of serum 37 to linear peptides of protein X4 of SARS-CoV Urbani [1] | Binding of serum 37 to looped/cyclic peptides of protein X4 of SARS-CoV Urbani [1] | Binding of serum London to linear peptides of protein X4 of SARS-CoV Urbani [1] | Binding of Control serum Blood-bank to linear peptides [3]
0.1: Rabbit serum looped peptides [2]
0.4: Binding of serum 1b to linear peptides of protein X4 of SARS-CoV Urbani [1] | Binding of serum 1b to looped/cyclic peptides of protein X4 of SARS-CoV Urbani [1] | Binding of serum 2 to linear peptides of protein X4 of SARS-CoV Urbani [1] | Binding of serum London to looped/cyclic peptides of protein X4 of SARS-CoV Urbani [1] | Binding of serum SARS-green to linear peptides of protein X4 of SARS-CoV Urbani [1] | Binding of serum SARS-yellow to looped/cyclic peptides of protein X4 of SARS-CoV Urbani [1]
0.5: Binding of serum 6 to linear peptides of protein X4 of SARS-CoV Urbani [1] | Binding of serum 62 to looped/cyclic peptides of protein X4 of SARS-CoV Urbani [1] | Binding of serum SARS-green to looped/cyclic peptides of protein X4 of SARS-CoV Urbani [1] | Rabbit serum linear peptides [2] | Binding of Control serum LUMC to linear peptides [3]
0.9: Binding of serum 6 to looped/cyclic peptides of protein X4 of SARS-CoV Urbani [1]
0.2: Binding of serum SARS-yellow to linear peptides of protein X4 of SARS-CoV Urbani [1]
0.8: Binding of serum 2 to looped/cyclic peptides of protein X4 of SARS-CoV Urbani [1] | Binding of Control serum LUMC to looped peptides [3]
0.7: Binding of serum 62 to linear peptides of protein X4 of SARS-CoV Urbani [1] | Binding of Control Serum Blood-Bank to Looped peptides [3]

AGGALIARCWYLHEG
0.4: Binding of serum 1b to looped/cyclic peptides of protein X5 of SARS-CoV Urbani [1] | Binding of serum SARS-green to looped/cyclic peptides of protein X5 of SARS-CoV Urbani [1] | Binding of serum SARS-yellow to looped/cyclic peptides of protein X5 of SARS-CoV Urbani [1] | Rabbit serum looped peptides [2] | Binding of Control serum LUMC to looped peptides [3]
0.8: Binding of serum 1a to linear peptides of protein X5 of SARS-CoV Urbani [1] | Binding of serum 37 to linear peptides of protein X5 of SARS-CoV Urbani [1]
0.7: Binding of serum 1a to looped/cyclic peptides of protein X5 of SARS-CoV Urbani [1] | Binding of serum 1b to linear peptides of protein X5 of SARS-CoV Urbani [1] | Binding of serum 6 to linear peptides of protein X5 of SARS-CoV Urbani [1] | Binding of serum London to linear peptides of protein X5 of SARS-CoV Urbani [1] | Binding of serum SARS-green to linear peptides of protein X5 of SARS-CoV Urbani [1] | Binding of Control Serum Blood-Bank to Looped peptides [3]
0.6: Binding of serum 37 to looped/cyclic peptides of protein X5 of SARS-CoV Urbani [1] | Binding of Control serum Blood-bank to linear peptides [3]
0.2: Binding of serum London to looped/cyclic peptides of protein X5 of SARS-CoV Urbani [1]
0.9: Binding of serum 62 to linear peptides of protein X5 of SARS-CoV Urbani [1]
0.5: Binding of serum 2 to linear peptides of protein X5 of SARS-CoV Urbani [1] | Binding of serum 2 to looped/cyclic peptides of protein X5 of SARS-CoV Urbani [1] | Binding of serum 6 to looped/cyclic peptides of protein X5 of SARS-CoV Urbani [1] | Binding of serum 62 to looped/cyclic peptides of protein X5 of SARS-CoV Urbani [1] | Binding of serum SARS-yellow to linear peptides of protein X5 of SARS-CoV Urbani [1] | Rabbit serum linear peptides [2] | Binding of Control serum LUMC to linear peptides [3]

AISPKFTTSLSLHKL
1.1: Binding of serum London to looped/cyclic peptides of protein X2 of SARS-CoV Urbani [1]
0.2: Binding of a rabbit serum to linear peptides [2]
0.3: Binding of serum SARS-green to looped/cyclic peptides of protein X2 of SARS-CoV Urbani [1]
0.4: Binding of serum 2 to looped/cyclic peptides of protein X2 of SARS-CoV Urbani [1] | Binding of serum SARS-green to linear peptides of protein X2 [1] | Binding of serum SARS-yellow to looped/cyclic peptides of protein X2 of SARS-CoV Urbani [1] | Binding of a rabbit serum to looped peptides [2]
0.7: Binding of serum 62 to looped/cyclic peptides of protein X2 of SARS-CoV Urbani [1]
0.5: Binding of serum 1b to linear peptides of protein X2 [1] | Binding of serum 2 to linear peptides of protein X2 [1] | Binding of serum 37 to looped/cyclic peptides of protein X2 of SARS-CoV Urbani [1] | Binding of serum London to linear peptides of protein X2 [1] | Binding of serum SARS-yellow to linear peptides of protein X2 [1]
0.6: Binding of serum 1a to linear peptides of protein X2 [1] | Binding of serum 1a to looped/cyclic peptides of protein X2 of SARS-CoV Urbani [1] | Binding of serum 1b to looped/cyclic peptides of protein X2 of SARS-CoV Urbani [1] | Binding of serum 6 to linear peptides of protein X2 [1] | Binding of serum 37 to linear peptides of protein X2 [1] | Binding of serum 62 to linear peptides of protein X2 [1] | Binding of Control serum LUMC to linear peptides [3] | Binding of Control serum LUMC to looped peptides [3]
0.8: Binding of serum 6 to looped/cyclic peptides of protein X2 of SARS-CoV Urbani [1] | Binding of Control Serum Blood-Bank to Looped peptides [3] | Binding of Control serum Blood-bank to linear peptides [3]
